These results are taken from US20260176320A1, “MODULATORS OF G-PROTEIN COUPLED RECEPTORS” (priority 2018, published 2026).

The target in one experiment is T1, GIP-R (Homo sapiens, UniProt P48546).
T1 sequence (P48546 22-466): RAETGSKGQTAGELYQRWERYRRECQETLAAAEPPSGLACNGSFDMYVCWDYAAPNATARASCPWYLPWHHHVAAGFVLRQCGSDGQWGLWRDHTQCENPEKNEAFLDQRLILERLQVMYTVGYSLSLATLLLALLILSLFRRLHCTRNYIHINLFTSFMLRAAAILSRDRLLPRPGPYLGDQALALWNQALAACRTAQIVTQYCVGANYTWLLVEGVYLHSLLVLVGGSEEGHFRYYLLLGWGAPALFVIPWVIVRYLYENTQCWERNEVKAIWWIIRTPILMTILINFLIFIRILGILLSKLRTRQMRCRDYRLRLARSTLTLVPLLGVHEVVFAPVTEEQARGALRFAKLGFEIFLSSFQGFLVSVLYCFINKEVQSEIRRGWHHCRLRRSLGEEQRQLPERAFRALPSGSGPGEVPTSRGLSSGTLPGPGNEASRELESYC
Briefly: HitHunter cAMP assay (GIP-R). It counts as cell-based. Particulars: cAMP; for EC50: read-out: EC50 GIP-R/nM; for Emax: read-out: (Emax) GIP-R. The method in brief:
(§1)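 Suspension cells (10,000/well) in HBSS with 10 mM HEPES, 625 μM IBMX, 0.2% BSA exposed to 22-point 2-fold agonist series in duplicate for 30 min at room temperature. cAMP measured by antibody immunocompetition with overnight development, luminescence read-out.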

For experiment [1], the target named is T2, GLP-1R (Homo sapiens, UniProt P43220). Briefly: HitHunter cAMP assay (GLP-1R). The format is cell-based. The following applies: cAMP; for Emax: read-out: (Emax) GLP-1R; for EC50: read-out: EC50 GLP-1R/nM. The method in brief:
as §1

The test system of a further experiment is mice. As to the kind of experiment: Glucose tolerance test (GTT). It counts as in vivo, mouse. The following applies: 24 h GTT, s.c., percent of vehicle. The method in brief:
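Compounds diluted in PBS from 1 mM DMSO stocks and given subcutaneously 15 min (5-6 h fast), 4 h (16 h overnight fast), 16 h or 24 h before intraperitoneal glucose (2 g/kg). Tail blood glucose read at 10–120 min post-glucose, at least 6 mice per time-point. Glucose AUC over time determined.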

Experiment [2] concerns the target T2, GLP-1R. Briefly: PathHunter β-arrestin assay. It counts as cell-based. Particulars: PathHunter β-arrestin assay; read-out: β-arrestin activity EC50. In outline:
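Cells (5,000/well) plated overnight, then exposed to a 22-point 2-fold agonist dilution series in medium with 0.2% BSA for 90 min at 37 °C, 5% CO2. PathHunter detection reagent added; after 3 h at room temperature in the dark, luminescence read.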

Like-named read-outs stand apart in the source and are kept apart here.

T2 sequence (P43220 24-463): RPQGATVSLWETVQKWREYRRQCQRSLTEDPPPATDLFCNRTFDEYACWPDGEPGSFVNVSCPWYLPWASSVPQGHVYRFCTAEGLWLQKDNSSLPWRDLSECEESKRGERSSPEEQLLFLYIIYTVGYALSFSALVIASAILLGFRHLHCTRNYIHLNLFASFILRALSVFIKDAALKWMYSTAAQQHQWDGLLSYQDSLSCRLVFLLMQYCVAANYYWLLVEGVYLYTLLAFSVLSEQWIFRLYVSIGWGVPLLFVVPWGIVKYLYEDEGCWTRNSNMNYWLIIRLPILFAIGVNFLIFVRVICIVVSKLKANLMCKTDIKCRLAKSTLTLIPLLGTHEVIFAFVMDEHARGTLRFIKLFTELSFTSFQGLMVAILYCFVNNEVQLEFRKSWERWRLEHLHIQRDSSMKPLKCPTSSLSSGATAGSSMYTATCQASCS

Turning to `CCCCCCCCCCCCCCCC(=O)N[C@@H](CCC(=O)NCCCC[C@H](NC(=O)[C@H](CO)NC(=O)[C@@H]1CCCN1C(=O)[C@@H]1CCCN1C(=O)[C@@H]1CCCN1C(=O)[C@H](C)NC(=O)CNC(=O)[C@H](CO)NC(=O)[C@H](CO)NC(=O)[C@@H]1CCCN1C(=O)CNC(=O)CNC(=O)[C@H](C)NC(=O)[C@H](CC(C)C)NC(=O)[C@H](CC(C)C)NC(=O)[C@H](Cc1c[nH]c2ccccc12)NC(=O)[C@H](CC(N)=O)NC(=O)[C@@H](NC(=O)[C@H](Cc1ccccc1)NC(=O)[C@H](CCC(=O)O)NC(=O)C(C)(C)NC(=O)[C@H](C)NC(=O)[C@H](C)NC(=O)[C@H](CCC(N)=O)NC(=O)[C@H](CCCCN)NC(=O)[C@H](CC(=O)O)NC(=O)[C@H](CC(C)C)NC(=O)[C@H](Cc1ccc(O)cc1)NC(=O)[C@@H](NC(=O)[C@H](CO)NC(=O)[C@H](Cc1ccc(O)cc1)NC(=O)[C@H](CC(=O)O)NC(=O)[C@H](CO)NC(=O)[C@@H](NC(=O)[C@H](Cc1ccccc1)NC(=O)[C@@H](NC(=O)CNC(=O)[C@H](CCC(=O)O)NC(=O)CSCC(=O)N1CCNC1=O)[C@@H](C)O)[C@@H](C)O)[C@@H](C)CC)C(C)C)C(N)=O)C(=O)O` [Compound 98], the EC50 at GIP-R (Table 3) was > 1000 nM; on GIP-R (Table 3A) it was > 1000 nM; on GLP-1R [1] (Table 3) it was 0.1 to 1 nM; on GLP-1R [1] (Table 3A), 0.1 to 1 nM; on GLP-1R [2], > 1000 nM. Further, at GIP-R (read-out: (Emax) GIP-R at 1 μM, Table 3, at 1 μM), the Emax at 1 µM is < 5%. For the same compound, the Emax on GLP-1R [1] (Table 3) and on GLP-1R [1] (Table 3A) was 96% each time. Besides, in the experiment with mice (dose range 5.1-15 nmol/kg), the AUC score is 2 (AUC score 2 = 26-50%).
Regarding `CCCCCCCCCCCCCCCC(=O)N[C@@H](CCC(=O)NCCCC[C@H](NC(=O)[C@H](CO)NC(=O)[C@@H]1CCCN1C(=O)[C@@H]1CCCN1C(=O)[C@@H]1CCCN1C(=O)[C@H](C)NC(=O)CNC(=O)[C@H](CO)NC(=O)[C@H](CO)NC(=O)[C@@H]1CCCN1C(=O)CNC(=O)CNC(=O)[C@H](C)NC(=O)[C@H](CC(C)C)NC(=O)[C@H](CC(C)C)NC(=O)[C@H](Cc1c[nH]c2ccccc12)NC(=O)[C@H](CC(N)=O)NC(=O)[C@@H](NC(=O)[C@H](Cc1ccccc1)NC(=O)[C@H](CCC(=O)O)NC(=O)C(C)(C)NC(=O)[C@H](C)NC(=O)[C@H](C)NC(=O)[C@H](CCC(N)=O)NC(=O)[C@H](CCCCN)NC(=O)[C@H](CC(=O)O)NC(=O)[C@H](CC(C)C)NC(=O)[C@H](Cc1ccc(O)cc1)NC(=O)[C@@H](NC(=O)[C@H](CO)NC(=O)[C@H](Cc1ccc(O)cc1)NC(=O)[C@H](CC(=O)O)NC(=O)[C@H](CO)NC(=O)[C@@H](NC(=O)[C@H](Cc1ccccc1)NC(=O)[C@@H](NC(=O)CNC(=O)[C@H](CCC(=O)O)NC(=O)CSCC(=O)NCCN1C(=O)CCC1=O)[C@@H](C)O)[C@@H](C)O)[C@@H](C)CC)C(C)C)C(N)=O)C(=O)O` [Compound 114], the maximum response (Emax) fell in the range of 42 to 63% at GIP-R (Table 3), 42 to 63% on GIP-R (Table 3A), 94 to 103% at GLP-1R [1] (Table 3) and 94 to 103% on GLP-1R [1] (Table 3A). The EC50 was 1 to 10 nM at GIP-R (Table 3); 1 to 10 nM at GIP-R (Table 3A); 0.1 to 10 nM on GLP-1R [1] (Table 3); 0.1 to 10 nM on GLP-1R [1] (Table 3A); > 1000 nM on GLP-1R [2]. For the same compound, the AUC score in the experiment on mice (dose range 2-5 nmol/kg) is listed as 3 (AUC score 3 = 51-75%).
On to `CCCCCCCCCCCCCCCC(=O)N[C@@H](CCC(=O)NCCCC[C@H](NC(=O)[C@H](CO)NC(=O)[C@@H]1CCCN1C(=O)[C@@H]1CCCN1C(=O)[C@@H]1CCCN1C(=O)[C@H](C)NC(=O)CNC(=O)[C@H](CO)NC(=O)[C@H](CO)NC(=O)[C@@H]1CCCN1C(=O)CNC(=O)CNC(=O)[C@H](C)NC(=O)[C@H](CC(C)C)NC(=O)[C@H](CC(C)C)NC(=O)[C@H](Cc1c[nH]c2ccccc12)NC(=O)[C@H](CC(N)=O)NC(=O)[C@@H](NC(=O)[C@H](Cc1ccccc1)NC(=O)[C@H](CCC(=O)O)NC(=O)C(C)(C)NC(=O)[C@H](C)NC(=O)[C@H](C)NC(=O)[C@H](CCC(N)=O)NC(=O)[C@H](CCCCN)NC(=O)[C@H](CC(=O)O)NC(=O)[C@H](CC(C)C)NC(=O)[C@H](Cc1ccc(O)cc1)NC(=O)[C@@H](NC(=O)[C@H](CO)NC(=O)[C@H](Cc1ccc(O)cc1)NC(=O)[C@H](CC(=O)O)NC(=O)[C@H](CO)NC(=O)[C@@H](NC(=O)[C@H](Cc1ccccc1)NC(=O)[C@@H](NC(=O)CNC(=O)[C@H](CCC(=O)O)NC(=O)CSCC(=O)NCCN1C(=O)CSC1=O)[C@@H](C)O)[C@@H](C)O)[C@@H](C)CC)C(C)C)C(N)=O)C(=O)O` [Compound 195], for which the maximal response (Emax) at GIP-R (Table 3) is 46 to 87%; on GIP-R (Table 3A) it was 46 to 87%; on GLP-1R [1] (Table 3), 93 to 113%; at GLP-1R [1] (Table 3A), 93 to 113%. Further, the EC50 was 0.1 to 10 nM on GIP-R (Table 3), 0.1 to 10 nM at GIP-R (Table 3A), 0.1 to 10 nM at GLP-1R [1] (Table 3A) and > 1000 nM on GLP-1R [2]. In the experiment on mice (dose range 2-5 nmol/kg), the AUC score is 2 (AUC score 2 = 26-50%).
Take `CCCCCCCCCCCCCCCC(=O)N[C@@H](CCC(=O)NCCCC[C@H](NC(=O)[C@H](CO)NC(=O)[C@@H]1CCCN1C(=O)[C@@H]1CCCN1C(=O)[C@@H]1CCCN1C(=O)[C@H](C)NC(=O)CNC(=O)[C@H](CO)NC(=O)[C@H](CO)NC(=O)[C@@H]1CCCN1C(=O)CNC(=O)CNC(=O)[C@H](C)NC(=O)[C@H](CC(C)C)NC(=O)[C@H](CC(C)C)NC(=O)[C@H](Cc1c[nH]c2ccccc12)NC(=O)[C@H](CC(N)=O)NC(=O)[C@@H](NC(=O)[C@H](Cc1ccccc1)NC(=O)[C@H](CCC(=O)O)NC(=O)C(C)(C)NC(=O)[C@H](C)NC(=O)[C@H](C)NC(=O)[C@H](CCC(N)=O)NC(=O)[C@H](CCCCN)NC(=O)[C@H](CC(=O)O)NC(=O)[C@H](CC(C)C)NC(=O)[C@H](Cc1ccc(O)cc1)NC(=O)[C@@H](NC(=O)[C@H](CO)NC(=O)[C@H](Cc1ccc(O)cc1)NC(=O)[C@H](CC(=O)O)NC(=O)[C@H](CO)NC(=O)[C@@H](NC(=O)[C@H](Cc1ccccc1)NC(=O)[C@@H](NC(=O)CNC(=O)[C@H](CCC(=O)O)NC(=O)CCNC(=O)CN1CCOCC1=O)[C@@H](C)O)[C@@H](C)O)[C@@H](C)CC)C(C)C)C(N)=O)C(=O)O` [Compound 233]: the maximal effect (Emax) on GIP-R (Table 3A) was found to be 77%; at GLP-1R [1] (Table 3A), 96%. The results for the EC50 at GIP-R (Table 3A), on GLP-1R [1] (Table 3A) and on GLP-1R [2] were 1 to 10 nM, < 0.1 nM and 10 to 1000 nM, respectively. Also, in the experiment on mice (dose range 2-5 nmol/kg), the AUC score is reported as 2 (AUC score 2 = 26-50%).
Turning to `CCCCCCCCCCCCCCCC(=O)N[C@@H](CCC(=O)NCCCC[C@H](NC(=O)[C@H](CO)NC(=O)[C@@H]1CCCN1C(=O)[C@@H]1CCCN1C(=O)[C@@H]1CCCN1C(=O)[C@H](C)NC(=O)CNC(=O)[C@H](CO)NC(=O)[C@H](CO)NC(=O)[C@@H]1CCCN1C(=O)CNC(=O)CNC(=O)[C@H](C)NC(=O)[C@H](CC(C)C)NC(=O)[C@H](CC(C)C)NC(=O)[C@H](Cc1c[nH]c2ccccc12)NC(=O)[C@H](CC(N)=O)NC(=O)[C@@H](NC(=O)[C@H](Cc1ccccc1)NC(=O)[C@H](CCC(=O)O)NC(=O)C(C)(C)NC(=O)[C@H](C)NC(=O)[C@H](C)NC(=O)[C@H](CCC(N)=O)NC(=O)[C@H](CCCCN)NC(=O)[C@H](CC(=O)O)NC(=O)[C@H](CC(C)C)NC(=O)[C@H](Cc1ccc(O)cc1)NC(=O)[C@@H](NC(=O)[C@H](CO)NC(=O)[C@H](Cc1ccc(O)cc1)NC(=O)[C@H](CC(=O)O)NC(=O)[C@H](CO)NC(=O)[C@@H](NC(=O)[C@H](Cc1ccccc1)NC(=O)[C@@H](NC(=O)CNC(=O)[C@H](CCC(=O)O)NC(=O)CCNC(=O)Cn1ccccc1=O)[C@@H](C)O)[C@@H](C)O)[C@@H](C)CC)C(C)C)C(N)=O)C(=O)O` [Compound 234], the maximal response (Emax) was 76% at GIP-R (Table 3A) and 97% at GLP-1R [1] (Table 3A). For the same compound, the EC50 on GIP-R (Table 3A) is 1 to 10 nM; on GLP-1R [1] (Table 3A), 0.1 to 1 nM; at GLP-1R [2], > 1000 nM. Further, the AUC score in the experiment on mice (dose range 2-5 nmol/kg) is recorded as 3 (AUC score 3 = 51-75%).

Usually Emax stands for the maximal effect, on the per cent scale that the assay sets.
